Results published in patent EP3613735A1, “NOVEL SIRT 1 ACTIVATOR AND MEDICINAL USE THEREOF” (Pusan National University Industry - University Cooperation …, priority 2017, dated 2018).

Tests used:
[1] = system: skin fibroblasts; test: β-galactosidase staining of UVB-induced cell aging; format: cell-based; conditions: UVB of 12 mJ/cm^2; pretreated at 1 µM for 24 hours
Experimental: β-galactosidase is used to induce cellular aging of fibroblasts, which are the main cells of the epidermal layer of skin, by using UVB, the most important environmental factor in skin aging, as the most common marker for cell aging and β-galactosidase staining was performed to analyze the cell aging protection of Compound 32u. […]

[2] = system: p-IRE; test: Liver endoplasmic reticulum stress marker, Western blot; format: in vivo, mouse; conditions: db/db mice, oral treatment
Experimental: The cause of non-alcoholic liver disease (NAFLD) is unclear, but recent studies report that endoplasmic reticulum (ER) stress can be involved in fatty liver development and progression to non-alcoholic fatty hepatitis. Thus, in order to analyze the effect of Compound 32u on endoplasmic reticulum stress-related marker (p-IRE) was identified by Western blot. Briefly, about 50 mg of liver was quantified, homogenated and lysed to extract proteins. After quantifying the extracted protein and loading the same amount thereof in the polyacrylamide gel, the protein was separated according to molecular weight through SDS-PAGE (sodium dodecyl sulfate-polyacrylamide gel electrophoresis). Proteins separated according to molecular weight were transferred to a membrane by applying an electric field, and the desired protein was detected using a specific antibody. After reacting the primary antibody that specifically binds to the protein to be detected for at least 12 hours, the secondary antibody that specifically binds to the primary antibody is reacted for 1 hour, and the expression of the protein can be analyzed by treating the developer liquid containing the substrate HRP (horse radish peroxidase) present in the secondary antibody. […] Briefly, about 50 mg of liver was quantified, homogenated and lysed to extract proteins. […]

[3] = system: yeast (Saccharomyces cerevisiae); test: Yeast lifespan extension; conditions: yeast group treated, compared with the control group

| Compound | β-galactosidase staining [1] | protein expression of endoplasmic reticulum stress-related markers (p-IRE) [2] | lifespan [3] |
| --- | --- | --- | --- |
| O=C(Nc1ccccc1-c1nc2cc(CN3CCN(C4CCCCC4)CC3)ccc2o1)c1ccc2ccccc2c1 [Compound 70c, N-(2-(5-((4-Cyclohexylpiperazin-1-yl)methyl)benzo[d]oxazol-2-yl)phenyl)-2-naphthamide] | reduced | significantly reduced |  |
| Cl.O=C(Nc1ccccc1-c1cc2ccc(CN3CCNCC3)cc2o1)c1ccc2ccccc2c1 [Compound 32u, N-(2-(6-(Piperazin-1-ylmethyl)benzofuran-2-yl)phenyl)-2-naphthamide hydrochloride] | reduced | significantly reduced | significantly extended |
